Measured values from patent publication US20250108066A1, “TRINUCLEOTIDE CAP ANALOGS AND METHODS OF USE THEREOF” (TriLink BioTechnologies, LLC, priority 2022, published 2025).

Tested on: CD-1 mice
Experiment: In vivo luciferase expression in mice injected with LNP:mRNA (Fluc mRNA capped with cap analog), whole-body bioluminescence imaging
Settings: female CD-1 mice, LNP:mRNA 1 mg/kg single tail-vein bolus; for in vivo luciferase expression (translation) as compared to the same compound lacking the 3′OMe group on the m7G: pairwise comparison 3′OMe vs 3′OH on m7G, FIG. 4 / FIG. 2; for in vivo luciferase expression as compared to m7GpppA2′OMepG (Control): integrated flux from 3-48 hours, FIG. 2
Experimental: Female CD-1 mice of 8-9 weeks old were randomized into groups of five animals based on body weight at the beginning of the study (Charles River Laboratories, Discovery Research Services North Carolina). Lipid nanoparticle formulations including mRNA (capped using a cap analog recited in Table 1, N1-methylpseudouridine-5′-Triphosphate (N1-me-PsU) modified firefly luciferase (Fluc) mRNA) (LNP:mRNA) test articles were diluted in PBS to achieve 1 mg/kg delivery in a single bolus by tail-vein injection. The body weight of each mouse was measured once a day for the duration of the study and two blood draws were taken for serum analysis by Mouse Cytokine/Chemokine 26-Plex ProcartaPlex Panel 1 by Luminex platform (Thermo Fisher Scientific; Waltham, MA). Luciferase activity was measured by whole-body bioluminescence imaging on IVIS Spectrum CT system by Perkin Elmer (Greenville, SC) at six time points post mRNA injection (3 hours, 6 hours, 9 hours, 12 hours, 24 hours, and 48 hours hours post-injection). D-luciferin was delivered by intraperitoneal injection 10 minutes prior to each imaging session (150 mg/kg total). The measured luciferase expression results are shown in FIG. 2, showing the integrated flux from 3-48 hours. […] Luminescence intensity scale is on the left.

SMILES | in vivo luciferase expression (translation) as compared to the same compound lacking the 3′OMe group on the m7G | in vivo luciferase expression as compared to m7GpppA2′OMepG (Control)
COC1C(OP(=O)(O)OC[C@H]2O[C@@H](n3cnc4c(=O)[nH]c(N)nc43)C(O)C2O)[C@@H](COP(=O)(O)OP(=O)([O-])OP(=O)(O)OC[C@H]2O[C@@H](n3c[n+](C)c4c(=O)[nH]c(N)nc43)C(OC)C2OC)O[C@H]1n1cnc2c(N)ncnc21 (stereo in doubt) [Compound 25, ^m7G2′OMe3′OMepppA2′OMepG] | increased luciferase expression in vivo | –
C[n+]1cn([C@@H]2O[C@H](COP(=O)(O)OP(=O)([O-])OP(=O)(O)OC[C@]34COC(C3OP(=O)(O)OC[C@H]3O[C@@H](n5cnc6c(=O)[nH]c(N)nc65)C(O)C3O)[C@H](n3cnc5c(N)ncnc53)O4)C(O)C2O)c2nc(N)[nH]c(=O)c21 (stereo in doubt) [Compound 1, ^m7GpppA2′,4′-LNApG] | – | increased in vivo luciferase expression
COC1C(OP(=O)(O)OC[C@H]2O[C@@H](n3cnc4c(=O)[nH]c(N)nc43)C(O)C2O)[C@@H](COP(=O)(O)OP(=O)([O-])OP(=O)(O)OC[C@]23COC(C2O)[C@H](n2c[n+](C)c4c(=O)[nH]c(N)nc42)O3)O[C@H]1n1cnc2c(N)ncnc21 (stereo partly drawn) [Compound 32, ^m7G2′4′LNApppA2′OMepG] | – | increased in vivo luciferase expression
COC1C(OP(=O)(O)OC[C@H]2O[C@@H](n3cnc4c(=O)[nH]c(N)nc43)C(O)C2O)[C@@H](COP(=O)(O)OP(=O)([O-])OP(=O)(O)OC[C@H]2O[C@@H](n3c[n+](C)c4c(=O)[nH]c(N)nc43)C(O)C2OC)O[C@H]1n1cnc2c(N)ncnc21 (stereo partly drawn) [Compound 29, ^m7G3′OmepppA2′OMepG] | increased luciferase expression in vivo | increased in vivo luciferase expression
COC1C(OP(=O)(O)OC[C@H]2O[C@@H](n3cnc4c(=O)[nH]c(N)nc43)C(O)C2O)[C@@H](COP(=O)(O)OP(=O)([O-])OP(=O)(O)OC[C@H]2O[C@@H](n3c[n+](C)c4c(=O)[nH]c(N)nc43)C(O)C2OC)O[C@H]1n1cnc2c(N)nc(N)nc21 (stereo in doubt) [Compound 8, ^m7G3′OMeppp(diaminopurine)2′OMepG] | increased luciferase expression in vivo | increased in vivo luciferase expression
COC1[C@@H](OP(=O)(O)OC[C@H]2O[C@@H](n3cnc4c(=O)[nH]c(N)nc43)C(O)[C@H]2O)[C@@H](/C=C/P(=O)(O)OP(=O)([O-])OP(=O)(O)OC[C@H]2O[C@@H](n3c[n+](C)c4c(=O)[nH]c(N)nc43)C(O)[C@H]2OC)O[C@H]1n1cnc2c(N)ncnc21 (stereo partly drawn) [Compound 5, ^m7G3′-OMepppA2′OMe-5′vinylpG] | increased luciferase expression in vivo | –
CNc1ncnc2c1ncn2[C@@H]1O[C@H](COP(=O)(O)OP(=O)([O-])OP(=O)(O)OC[C@H]2O[C@@H](n3c[n+](C)c4c(=O)[nH]c(N)nc43)C(O)C2OC)C(OP(=O)(O)OC[C@H]2O[C@@H](n3cnc4c(=O)[nH]c(N)nc43)C(O)C2O)C1OC (stereo partly drawn) [Compound 30, ^m7G3′OMeppp^m6A2′OMepG] | increased luciferase expression in vivo | increased in vivo luciferase expression
COC1C(O)[C@H](n2c[n+](C)c3c(=O)[nH]c(N)nc32)O[C@@H]1COP(=O)(O)OP(=O)([O-])OP(=O)(O)OC[C@]12COC(C1OP(=O)(O)OC[C@H]1O[C@@H](n3cnc4c(=O)[nH]c(N)nc43)C(O)C1O)[C@H](n1cnc3c(N)ncnc31)O2 (stereo in doubt) [Compound 2, ^m7G3′OMepppA2′,4′-LNApG] | increased luciferase expression in vivo | increased in vivo luciferase expression
